Assay [1] relates to CD81-enriched cell lines (astrocyte) vs. CD81-deficient cell lines (C6 glioma). The experiment in a line: Antiproliferation of CD81-enriched astrocytes vs. CD81-deficient C6 glioma cells. In kind it is cell-based. To be noted: for astrocyte-selective antiproliferation: concentration range of 0.1 to 10 μM, astrocytes relative to CD81-deficient cell lines. An excerpt: Further in accordance with the present invention, there are provided methods for synthesis of amantadine analogues by appending primary amines to 1-boraadamantane to evaluate such compounds for CD81 dependent antiproliferation of CD81-enriched cell lines (astrocyte) vs. CD81-deficient cell lines (C6 glioma). Specific details of the synthetic methods of the present invention as well as related data is now published in Wagner, Carl E. et al., Synthesis of-1-Boraadamantaneamine Derivatives with Selective Astrocyte vs C6 Glioma Antiproliferative Activity. A Novel Class of Anti-Hepatitis C Agents with Potential to Bind CD81, J.Med.Chem., Vol.46,2823-2833 (2003) and Wagner, Carl E., Syntheis and First Molecular Structure of a Bis-2-spiro-1boraadamantane Dirivative, Organic Letters, Vol. 6, No. 3, 313-316 (2004), copies of which are filed herewith and the entireties of which are expressly incorporated herein by reference.
The amantadine analogues of the present invention that bind to and activate CD81 may have the potential to prevent or treat HCV infections. Each compound's potential for preventive and therapeutic activity stems from the compound's potential to block viral attachment, virus-cell fusion or virus entry into host cells, or similarly counter potential mechanisms of HCV immune evasion. Out of a library of over 500 compounds including randomly selected small molecules and rationally designed small molecules, only the 1-boraadamantane amine compounds display a significant antiproliferative effect on the CD81-enriched astrocytes relative to the CD81-deficient cell lines. […] Additionally, structurally similar adamantane analogues to the active primary amine 1-boraadamantane complexes identified in this assay were synthesized for testing.
A variety of 1-boraadamatane amine complexes were synthesized by stoichiometric addition of a primary amine to 1-boraadamantane·THF. These complexes were subsequently evaluated for an antiproliferative effect on CD81-enriched cell lines to provide evidence for binding and activation of the CD81 receptor. Additional amantidine analogues structurally similar to the 1-boraadamantane amine complexes were also synthesized.

The next assay addresses α4 β1/VCAM cell line (Homo sapiens, UniProt P05556+P13612). To be noted: reported in the literature; read-out: IC50 as antagonist for α4 β1/VCAM; cited from earlier work.

Sequence of α4 β1/VCAM cell line (P13612 34-1032): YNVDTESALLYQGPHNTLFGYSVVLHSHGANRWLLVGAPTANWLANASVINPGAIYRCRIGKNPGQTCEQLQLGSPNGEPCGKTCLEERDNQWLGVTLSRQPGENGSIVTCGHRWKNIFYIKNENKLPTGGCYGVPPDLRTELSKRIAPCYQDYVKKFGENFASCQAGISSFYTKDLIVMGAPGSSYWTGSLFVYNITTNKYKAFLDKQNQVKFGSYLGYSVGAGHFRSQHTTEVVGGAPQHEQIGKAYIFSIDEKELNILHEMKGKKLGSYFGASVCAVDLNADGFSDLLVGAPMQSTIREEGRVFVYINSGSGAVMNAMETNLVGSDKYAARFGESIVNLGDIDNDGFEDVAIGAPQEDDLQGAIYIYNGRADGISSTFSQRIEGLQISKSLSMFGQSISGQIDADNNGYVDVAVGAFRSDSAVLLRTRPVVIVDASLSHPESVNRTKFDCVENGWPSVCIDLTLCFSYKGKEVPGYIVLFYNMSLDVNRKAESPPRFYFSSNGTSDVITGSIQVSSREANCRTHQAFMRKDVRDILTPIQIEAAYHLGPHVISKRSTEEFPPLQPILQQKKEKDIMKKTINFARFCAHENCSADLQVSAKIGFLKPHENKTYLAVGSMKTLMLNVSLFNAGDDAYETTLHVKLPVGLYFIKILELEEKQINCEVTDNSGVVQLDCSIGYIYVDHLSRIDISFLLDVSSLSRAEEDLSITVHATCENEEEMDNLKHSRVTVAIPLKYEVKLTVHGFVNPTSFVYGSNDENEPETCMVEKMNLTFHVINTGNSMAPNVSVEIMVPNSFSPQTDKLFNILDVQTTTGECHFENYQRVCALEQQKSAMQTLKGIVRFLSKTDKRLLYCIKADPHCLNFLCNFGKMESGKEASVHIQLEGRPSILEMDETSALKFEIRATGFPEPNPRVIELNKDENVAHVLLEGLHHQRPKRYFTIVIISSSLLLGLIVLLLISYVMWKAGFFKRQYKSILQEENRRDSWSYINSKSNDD
Sequence of α4 β1/VCAM cell line (P05556 21-798): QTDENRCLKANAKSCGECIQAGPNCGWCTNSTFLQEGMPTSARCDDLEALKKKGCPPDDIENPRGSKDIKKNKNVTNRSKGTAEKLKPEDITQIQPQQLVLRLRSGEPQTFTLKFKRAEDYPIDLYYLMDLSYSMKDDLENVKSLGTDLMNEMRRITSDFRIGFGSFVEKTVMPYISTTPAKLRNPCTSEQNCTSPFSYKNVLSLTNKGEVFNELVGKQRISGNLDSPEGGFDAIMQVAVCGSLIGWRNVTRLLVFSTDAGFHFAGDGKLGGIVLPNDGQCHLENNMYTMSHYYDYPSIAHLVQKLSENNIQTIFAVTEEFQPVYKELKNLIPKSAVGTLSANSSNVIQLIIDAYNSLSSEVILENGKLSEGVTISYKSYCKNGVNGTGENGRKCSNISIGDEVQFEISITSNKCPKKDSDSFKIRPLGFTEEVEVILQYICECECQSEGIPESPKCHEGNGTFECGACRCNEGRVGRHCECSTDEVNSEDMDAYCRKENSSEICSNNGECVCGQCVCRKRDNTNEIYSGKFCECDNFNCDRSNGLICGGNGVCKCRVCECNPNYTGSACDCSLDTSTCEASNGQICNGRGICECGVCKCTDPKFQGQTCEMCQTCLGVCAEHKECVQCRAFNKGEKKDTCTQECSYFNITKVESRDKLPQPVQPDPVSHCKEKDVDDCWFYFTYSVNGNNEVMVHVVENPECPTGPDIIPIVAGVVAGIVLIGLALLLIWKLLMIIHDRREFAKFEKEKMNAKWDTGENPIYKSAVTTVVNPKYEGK

As for `CC(C)C[C@H](NC(=O)C12CC3CC(CC(C3)C1)C2)C(=O)O` [Complex 16], in assay [1], the astrocyte-selective antiproliferation result was “astrocyte-selective antiproliferation”.

As to “1-boraadamantane 1-aminoadamantane complex [Complex 1]”, in assay [1] (cell based assay, astrocyte cell line), the “inhibiting the proliferation of the astrocyte cell line (ranking)” value is recorded as “most active compounds”.

As for `O=C(O)[C@H](Cc1ccccc1)NC(=O)C12CC3CC(CC(C3)C1)C2` [Complex 15], the “antiproliferative character (ranking)” value in assay [1] (0.1 to 10 μM range of concentration) was “greatest antiproliferative character”. Further, the astrocyte-selective antiproliferation result in assay [1] is listed as “astrocyte-selective antiproliferation”.

As for `O=C(O)C(CSSCC(NC(=O)C12CC3CC(CC(C3)C1)C2)C(=O)O)NC(=O)C12CC3CC(CC(C3)C1)C2` (stereo not shown) [Compound 26], the IC50 at α4 β1/VCAM cell line was 7.3 µM.

For `COC(=O)C(CSSCC(NC(=O)C12CC3CC(CC(C3)C1)C2)C(=O)OC)NC(=O)C12CC3CC(CC(C3)C1)C2` [Compound 25, N,N-diadamantylcarbonyl-L-cystine methyl ester], the IC50 at α4 β1/VCAM cell line is > 800 µM.

On to `Cl.NC12CC3CC(CC(C3)C1)C2` [amantadine, 1-aminoadamantane hydrochloride, reference compound], for which the “reduction of astrocyte proliferation” value in assay [1] (at high concentrations (>100 _M)) is listed as “only slightly reduces astrocyte proliferation”.

The values are drawn from US20040242542A1, “Compositions and methods for inducing CD81 dependent antiproliferation and for treating hepatitis C and other disorders” (The Regents of the University of California, priority 2003, published 2004).
